Data taken from ChEMBL document CHEMBL1145703, “Flavonol and chalcone ester glycosides from Bidens leucantha” (J Nat Prod, 1997).
Values after ≈ are worked out from the molar mass of the structure shown. Active and inactive are the calls of the source. The calls are words filed in the database; no cut-off is given here.

Assays:
[1] = system: Human immunodeficiency virus 1; assay: Antiviral activity against HIV1 MN infected in human C8166 cells assessed as reduction in Ag gp120 production by ELISA; type: functional, organism-based; settings: Human immunodeficiency virus 1, MN
[2] = Cytotoxicity against human C8166 cells by XTT-formazan method; type: cell-based; settings: read-out: TC50 (the source's name)
[3] = Selectivity index, ratio of EC50 for HIV1 MN infection in human C8166 cells to TC50 for human C8166 cells; type: functional
[4] = system: Human immunodeficiency virus 1; assay: Antiviral activity against HIV1 MN infection in human C8166 cells after 2 days by syncitium-forming assay; type: functional, organism-based
[5] = system: C8166; assay: Cytotoxicity against human C8166 cells at 250 ug/ml by XTT-formazan method; type: cell-based

Row | EC50 [1] [mg/L] | Compound | CC50 [2] [mg/L] | Selectivity Index [3] | Activity [4] | Activity [5]
1 | 50 (≈ 86.1 µM) | O=C(/C=C/c1ccc(O)cc1)OC[C@H]1O[C@@H](Oc2ccc(C(=O)/C=C/c3ccc(O)cc3)c(O)c2O)[C@H](O)[C@@H](O)[C@@H]1O | 250 (≈ 431 µM) | 12.5 | – | –
2 | – | COc1ccc(-c2oc3cc(O[C@@H]4O[C@H](CO[C@@H]5O[C@@H](C)[C@H](O)[C@@H](O)[C@H]5O)[C@@H](O)[C@H](O)[C@H]4O[C@@H]4O[C@H](CO)[C@@H](O)[C@H](O)[C@H]4O)cc(O)c3c(=O)c2OC)cc1O | – | – | inactive | –
3 | 10 (≈ 15.7 µM) | CC(=O)O[C@H]1[C@H](O)[C@@H](O)[C@H](Oc2ccc(C(=O)/C=C/c3ccc(O)c(O)c3)c(O)c2O)O[C@@H]1COC(=O)/C=C/c1ccc(O)cc1 | 100 (≈ 157 µM) | >10 | – | –
4 | 20 (≈ 34.7 µM) | CC(=O)OC[C@H]1O[C@@H](Oc2ccc(C(=O)/C=C/c3ccc(O)c(O)c3)c(O)c2O)[C@H](O)[C@@H](OC(C)=O)[C@@H]1OC(C)=O | – | 12.5 | – | Non-toxic
5 | – | COc1c(-c2ccc(O)c(O)c2)oc2cc(O[C@@H]3O[C@H](CO[C@@H]4O[C@@H](C)[C@H](O)[C@@H](O)[C@H]4O)[C@@H](O)[C@H](O)[C@H]3O)cc(O)c2c1=O | – | – | inactive | –
6 | – | COc1ccc(-c2oc3cc(O[C@@H]4O[C@H](CO[C@@H]5O[C@@H](C)[C@H](O)[C@@H](O)[C@H]5O[C@@H]5O[C@@H](C)[C@H](O)[C@@H](O)[C@H]5O)[C@@H](O)[C@H](O)[C@H]4O)cc(O)c3c(=O)c2OC)cc1O | – | – | inactive | –
7 | – | COc1ccc(-c2oc3cc(O[C@@H]4O[C@H](CO[C@@H]5O[C@@H](C)[C@H](O)[C@@H](O)[C@H]5O)[C@@H](O)[C@H](O)[C@H]4O)cc(O)c3c(=O)c2OC)cc1O | – | – | inactive | –
